The values that follow come from ChEMBL document CHEMBL3994653, “Parallel fluorescent probe synthesis based on the large-scale preparation of BODIPY FL propionic acid” (Bioorg Med Chem Lett, 2017).

Each structure is given as a SMILES string. Where only a bound is given, the exact number is not on record here.

In general, IC50 refers to the concentration needed to halve the response being measured.

In the test the target is T1, Steroid hormone receptor ERR1 (Homo sapiens, UniProt P11474).
T1 sequence (P11474 whole entry): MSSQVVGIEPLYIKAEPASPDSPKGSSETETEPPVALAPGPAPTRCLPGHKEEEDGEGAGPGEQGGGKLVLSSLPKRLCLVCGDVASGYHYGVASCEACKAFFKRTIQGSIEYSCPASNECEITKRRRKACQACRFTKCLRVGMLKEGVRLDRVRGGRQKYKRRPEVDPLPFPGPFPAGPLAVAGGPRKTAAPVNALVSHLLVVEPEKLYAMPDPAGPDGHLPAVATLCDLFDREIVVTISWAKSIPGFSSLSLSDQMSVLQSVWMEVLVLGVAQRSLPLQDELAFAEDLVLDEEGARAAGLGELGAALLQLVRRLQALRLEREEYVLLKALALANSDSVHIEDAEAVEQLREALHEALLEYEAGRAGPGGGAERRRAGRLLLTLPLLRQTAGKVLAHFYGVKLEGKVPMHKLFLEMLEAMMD
Description: Inverse agonist activity at GAL4-fused human ERRalpha expressed in HEK293 cells assessed as inhibition of transcriptional activity after 20 hrs by luciferase reporter gene assay. The class given is cell-based. (Reporter assays use an easily measured gene product as a stand-in for the process of interest.)
Take `CC(=O)c1ccc(N2CCN(C(=O)c3cc4c(C)nn(Cc5cccc(OCc6ccc(CNC(=O)CCC7=[N+]8C(=Cc9c(C)cc(C)n9[B-]8(F)F)C=C7)cc6)c5)c4s3)C[C@H]2C)nc1`: the IC50 was found to be 170 nM.

As for `CC(=O)c1ccc(N2CCN(C(=O)c3cc4c(C)nn(Cc5cccc(OCCCCCNC(=O)CCC6=[N+]7C(=Cc8c(C)cc(C)n8[B-]7(F)F)C=C6)c5)c4s3)C[C@H]2C)nc1`, the IC50 is 80 nM.

For the compound `CC(=O)c1ccc(N2CCN(C(=O)c3cc4c(C)nn(Cc5cccc(OCC6CCN(C(=O)CCC7=[N+]8C(=Cc9c(C)cc(C)n9[B-]8(F)F)C=C7)C6)c5)c4s3)C[C@H]2C)nc1` (some centres not stated), the IC50 turned out to be 770 nM. Then `CC(=O)c1ccc(N2CCN(C(=O)c3cc4c(C)nn(Cc5cccc(OCCCNC(=O)CCC6=[N+]7C(=Cc8c(C)cc(C)n8[B-]7(F)F)C=C6)c5)c4s3)C[C@H]2C)nc1`, with 490 nM; and `CC(=O)c1ccc(N2CCN(C(=O)c3cc4c(C)nn(Cc5cccc(OCCOCCOCCOCCNC(=O)CCC6=[N+]7C(=Cc8c(C)cc(C)n8[B-]7(F)F)C=C6)c5)c4s3)C[C@H]2C)nc1`, with 570 nM. For the compound `CC(=O)c1ccc(N2CCN(C(=O)c3cc4c(C)nn(Cc5cccc(OCCOCCNC(=O)CCC6=[N+]7C(=Cc8c(C)cc(C)n8[B-]7(F)F)C=C6)c5)c4s3)C[C@H]2C)nc1`, the IC50 was found to be 280 nM. In the case of `CC(=O)c1ccc(N2CCN(C(=O)c3cc4c(C)nn(Cc5cccc(OCC6CCN(C(=O)CCC7=[N+]8C(=Cc9c(C)cc(C)n9[B-]8(F)F)C=C7)CC6)c5)c4s3)C[C@H]2C)nc1` it was 210 nM.

As to `COCCOc1cccc(Cn2nc(C)c3cc(C(=O)N4CCN(c5ccc(C(C)=O)cn5)[C@H](C)C4)sc32)c1`, the IC50 was 22 nM. As to `CC(=O)c1ccc(N2CCN(C(=O)c3cc4c(C)nn(Cc5cccc(OCCCCNC(=O)CCC6=[N+]7C(=Cc8c(C)cc(C)n8[B-]7(F)F)C=C6)c5)c4s3)C[C@H]2C)nc1`, the IC50 was determined as 170 nM. In the case of `CC(=O)c1ccc(N2CCN(C(=O)c3cc4c(C)nn(Cc5cccc(OCC6CN(C(=O)CCC7=[N+]8C(=Cc9c(C)cc(C)n9[B-]8(F)F)C=C7)CCO6)c5)c4s3)C[C@H]2C)nc1` (some centres not stated), the IC50 is > 1000 nM. In the case of `CC(=O)c1ccc(N2CCN(C(=O)c3cc4c(C)nn(Cc5cccc(OCCNC(=O)CCC6=[N+]7C(=Cc8c(C)cc(C)n8[B-]7(F)F)C=C6)c5)c4s3)C[C@H]2C)nc1` it was 650 nM; in that of `CC(=O)c1ccc(N2CCN(C(=O)c3cc4c(C)nn(Cc5cccc(OCCOCCOCCNC(=O)CCC6=[N+]7C(=Cc8c(C)cc(C)n8[B-]7(F)F)C=C6)c5)c4s3)C[C@H]2C)nc1`, 390 nM.
